For one assay, the system named is Lucilia cuprina. Description: whole plant or invertebrate.
For the next assay, the target named is T1, Acetylcholinesterase (Bos taurus, UniProt P23795).
T1 sequence (P23795 whole entry): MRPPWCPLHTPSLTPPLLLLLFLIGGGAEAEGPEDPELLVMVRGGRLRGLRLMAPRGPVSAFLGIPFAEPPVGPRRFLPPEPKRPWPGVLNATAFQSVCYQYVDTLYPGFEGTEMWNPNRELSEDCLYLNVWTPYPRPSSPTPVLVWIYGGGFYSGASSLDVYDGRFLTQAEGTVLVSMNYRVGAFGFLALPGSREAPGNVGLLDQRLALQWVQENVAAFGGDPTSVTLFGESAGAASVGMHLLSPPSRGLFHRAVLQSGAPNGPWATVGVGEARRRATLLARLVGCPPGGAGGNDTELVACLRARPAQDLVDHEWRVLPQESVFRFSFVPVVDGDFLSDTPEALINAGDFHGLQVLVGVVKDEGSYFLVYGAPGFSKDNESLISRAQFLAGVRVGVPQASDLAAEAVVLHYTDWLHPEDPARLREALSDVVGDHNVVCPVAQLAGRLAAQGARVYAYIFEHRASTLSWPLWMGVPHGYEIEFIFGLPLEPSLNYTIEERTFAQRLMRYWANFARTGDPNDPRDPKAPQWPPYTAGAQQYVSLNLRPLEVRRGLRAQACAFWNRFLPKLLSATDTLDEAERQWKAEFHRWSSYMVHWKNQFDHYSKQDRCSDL

Assay [1] relates to Diabrotica undecimpunctata. As to the kind of experiment: whole plant or invertebrate. The settings on record: in Zea mays, read-out: LD50.
Description: Insecticidal activity against southern Corn rootworm (SCRW)

≈ marks a conversion by molar mass, not a printed value. Where only a bound is given, the exact number is not on record here.

Description for Acetylcholinesterase: Inhibition of bovine erythrocyte acetylcholinesterase (AChE)
Description for Lucilia cuprina: Insecticidal activity against blowfly Lucilia cuprina

`CCCNS(=O)(=O)N1N=C(OS(C)(=O)=O)CC1(C)C` gave an LD50 with Lucilia cuprina of 40.9 mg/kg. The molecule further returned an IC50 at Acetylcholinesterase of over 1000 µM. In assay [1], the LC50 was found to be 55 µg/mL (≈ 175 µM).
Take `CC(C)(C)NC(=O)N1N=C(OS(C)(=O)=O)CC1(C)C`: the LD50 with Lucilia cuprina was determined as 75.9 mg/kg. Moreover, the IC50 against Acetylcholinesterase is over 1000 µM. For the same molecule, the LC50 in assay [1] is 12 µg/mL (≈ 41.2 µM).
In the assay with Lucilia cuprina, `CC(C)C(=O)N1N=C(OS(C)(=O)=O)CC1(C)C` had an LD50 of over 100 mg/kg. The IC50 on Acetylcholinesterase was over 1000 µM. In addition, the LC50 in assay [1] worked out at 120 µg/mL (≈ 457 µM).
In the assay on Lucilia cuprina, `CC1(C)CC(OS(C)(=O)=O)=NN1C(N)=O` gave an LD50 of over 1000 mg/kg. Further, at Acetylcholinesterase, the IC50 was over 1000 µM. Further, the LC50 in assay [1] was over 1000 µg/mL.
As for `CC(C)NS(=O)(=O)N1N=C(OS(C)(=O)=O)CC1(C)C`, the LD50 with Lucilia cuprina amounted to 37 mg/kg. Also, half-maximal inhibition against Acetylcholinesterase (IC50) was put at 1270 µM. In assay [1], the LC50 is 60 µg/mL (≈ 191 µM).
The matching figures for `CC1(C)CC(OS(C)(=O)=O)=NN1C(=O)Nc1ccccc1`: over 100 mg/kg, over 1000 µM and over 1000 µg/mL.
`C=CCNC(=O)N1N=C(OS(C)(=O)=O)CC1(C)C` gave an LD50 in the assay on Lucilia cuprina of 6.84 mg/kg. 149 µM corresponded to half-maximal inhibition against Acetylcholinesterase (IC50). Further, the LC50 in assay [1] was determined as 1.6 µg/mL (≈ 5.81 µM).
The matching figures for `CCCS(=O)(=O)N1N=C(OS(C)(=O)=O)CC1c1ccccc1` (stereo unspecified): over 100 mg/kg, 62.5 µM and over 1000 µg/mL.
In the case of `CC1(C)CC(OS(C)(=O)=O)=NN1C(=O)NC1CCCCC1`, the LD50 with Lucilia cuprina turned out to be 2.64 mg/kg. The molecule also came in with an IC50 on Acetylcholinesterase of 284 µM. Moreover, in assay [1], the LC50 was over 1000 µg/mL.
In the assay on Lucilia cuprina, `CC1(C)CC(OS(C)(=O)=O)=NN1S(C)(=O)=O` showed an LD50 of over 1000 mg/kg. The same molecule gave an IC50 against Acetylcholinesterase of over 1000 µM. In addition, in assay [1], the LC50 was over 1000 µg/mL.
The matching figures for `CC(C)NC(=O)N1N=C(OS(C)(=O)=O)CC1C(C)C` (stereo unspecified): 25.1 mg/kg, 602 µM and 5 µg/mL (≈ 17.2 µM).
In the assay with Lucilia cuprina, `CC(C)NC(=O)N1N=C(OS(C)(=O)=O)CC1C` (stereo unspecified) yielded an LD50 of 21 mg/kg. Moreover, half-maximal inhibition against Acetylcholinesterase (IC50) was put at 28.6 µM. For the same molecule, the LC50 in assay [1] was under 0.5 µg/mL.
In turn, `CN(C)S(=O)(=O)N1N=C(OS(C)(=O)=O)CC1c1ccccc1` (stereo unspecified) returned an LD50 in the assay on Lucilia cuprina of over 100 mg/kg. This molecule also showed an IC50 against Acetylcholinesterase of over 1000 µM. The LC50 in assay [1] is over 1000 µg/mL.
For the molecule `CC(C)NC(=O)N1N=C(OS(C)(=O)=O)CC1(C)C`, the LD50 in the assay with Lucilia cuprina stood at 7.14 mg/kg. Moreover, the IC50 at Acetylcholinesterase was determined as 714 µM. For the same molecule, the LC50 in assay [1] came out at 1 µg/mL (≈ 3.61 µM).
The matching figures for `CC(C)NS(=O)(=O)N1N=C(OS(C)(=O)=O)CC1c1ccccc1` (stereo unspecified): over 100 mg/kg, over 1000 µM and over 1000 µg/mL.
As for `CC(C)NC(=O)N1N=C(OS(C)(=O)=O)CC1c1ccccc1` (stereo unspecified), the median lethal dose (LD50) in the assay with Lucilia cuprina is 34.4 mg/kg. On Acetylcholinesterase, the midpoint of inhibition, the IC50, lay at 40.6 µM. Moreover, the LC50 in assay [1] was under 0.5 µg/mL.
As for `CC(C)CS(=O)(=O)c1cccc(OS(C)(=O)=O)n1`, in the assay with Lucilia cuprina, the LD50 was over 100 mg/kg. On Acetylcholinesterase, this molecule showed an IC50 of 60.5 µM. Moreover, the LC50 in assay [1] was under 0.5 µg/mL.
`CCOC(=O)N1N=C(OS(C)(=O)=O)CC1(C)C`: the LD50 with Lucilia cuprina was over 100 mg/kg. For the same molecule, at Acetylcholinesterase, the concentration for half-maximal inhibition (IC50) was over 1000 µM. In addition, the LC50 in assay [1] was over 1000 µg/mL.
`COP(=O)(OC)C(O)C(Cl)(Cl)Cl` (stereo unspecified) [TRICHLORFON] displayed an LD50 with Lucilia cuprina of 21.8 mg/kg. For the same molecule, on Acetylcholinesterase, the IC50 is over 1000 µM.

By LD50 is commonly meant the dose expected to kill half of the subjects tested. The term IC50 denotes the concentration at which inhibition is half-maximal. Lower therefore signals higher potency.
